Key:
[1] = Kinetic study in dogs (effect of salt or crystal form on blood kinetics); assay type: in vivo; details: 6 mg/3 mL/kg expressed in terms of levodopa
Method: (2) Kinetic Study in Dogs (Effect of Salt or Crystal Form on Blood Kinetics)
In general, it is considered that when the salt or crystal form is different, a difference in solubility thereof or the like affects blood kinetics and sometimes causes a difference in potency of efficacy.
The collection of a plasma sample was carried out according to the previous section (1). However, the dose was set to 6 mg/3 mL/kg.
The preparation of an analytical sample and analysis were carried out according to the previous section (1).
In the above Table 6, a change over time in the concentration (μg/mL) of levodopa observed in the plasma when the compound of the present invention produced in Example 6, the compound of the present invention produced in Example 9, or the compound of the present invention produced in Example 10 was orally administered to dogs is shown. The numeral expressed with ± in the parenthesis represents a standard deviation.

[2] = tested on: p53R2; assay: Mutagenicity assay using mammalian cells (NESMAGET method); assay type: cell-based; details: for Mutagenicity assay (NESMAGET) Concentration at which mutagenicity was determined to be positive: concentration at which relative luciferase activity of p53R2 exceeded 200% (vehicle control 0.3% dimethylsulfoxide = 100%); for determination of mutagenicity: positive = relative luciferase activity of p53R2 exceeded 200%, compound of the present invention up to 200 μg/mL
Method: In the treatment of Parkinson's disease and/or Parkinson's syndrome, there is a possibility that a levodopa prodrug is continued to be taken over a long period of time of several years to several decades. Therefore, an evaluation was carried out as to whether or not the compound of the present invention has mutagenicity by a mutagenicity assay using mammalian cells.
A mutagenicity assay using mammalian cells was carried out as a commissioning test to be undertaken by Nissin Foods Holdings Co., Ltd. The present method also called NESMAGET method is a method in which the expression of p53R2 which is a DNA repair gene is detected by luciferase activity, and the specific experimental technique is described in JP-A-2005-000024 and Japanese Patent No. 4243716. In the determination as to whether or not the result of this test was positive, the luciferase activity of p53R2 in the case of a vehicle control (0.3% dimethylsulfoxide) was taken as 100%, and a concentration at which a relative luciferase activity exceeded 200% was determined to be “concentration at which mutagenicity was determined to be positive”.

[3] = Kinetic study in dogs (oral administration, plasma levodopa)
Description: The relationship between the blood concentration of levodopa and side effects in patients who take levodopa has been gradually elucidated. […] In order to reduce the number of doses of levodopa and avoid side effects such as dyskinesia and wearing-off in patients who take levodopa, it is necessary to maintain the blood concentration of levodopa within a therapeutic range as long as possible.
These levodopa prodrugs are prodrugs containing an ester bond, and therefore, it is considered that among a number of enzymes, carboxyesterase plays the most important role in the process of producing levodopa by metabolizing the compound after the compound is administered in vivo. Therefore, as an animal species to be used for performing a kinetic study, dogs in which the organ distribution of carboxyesterase is most similar to that of humans were selected as subjects for evaluation.
The thus obtained drug solution was administered by gavage through a gastric tube into the stomach of dogs (male beagle dogs) which were fasted from the day before the administration. At 15 and 30 minutes, and 1, 2, 4, 6, and 8 hours after administration of the drug solution, 1 mL of blood was collected from a cephalic vein with a heparinized syringe. Immediately after the collection, the collected blood was centrifuged in a desktop centrifuge at 14500 rpm for 45 seconds. Then, acetonitrile containing 0.1125% formic acid was added to the thus obtained plasma in an amount as twice as large as the volume of the plasma, followed by stirring, and then, the resulting sample was stored at −20° C. until measurement.
The sample was thawed on the measurement day, followed by stirring and centrifugation at 13000 rpm for 3 minutes (at 4° C.). The resulting supernatant was filtered and the filtrate was analyzed by LC/MS/MS. The analysis was performed by LC/MS/MS under the following conditions.
Measurement Apparatus: API-5000 (manufactured by Applied Biosystems, Inc.)
Analytical column: CAPCELL PAK CR (1:4) (4.6 mm, I.D.×250 mm, 5 μm)
Analytical column temperature: 40° C.
Mobile phase: A: 5 mM ammonium formate (pH 3.9), B: acetonitrile (A/B=17/3)
Detection (levodopa): m/z (precursor): 196.19, m/z (product): 134.99
DP (Declustering Potential): −60
CE (Collision Energy): −25
CXP (Collision Cell Exit Potential): −17
Incidentally, the numerical value in the column which indicates the dose expressed in terms of levodopa refers to a dose equivalent to that of levodopa.

[4] = tested on: rat model injected with 6-hydroxydopamine into the medial forebrain bundle; assay: Rotation test in model injected with 6-hydroxydopamine into medial forebrain bundle; assay type: in vivo, rats (male Crl:CD(SD)IGS); details: 6-OHDA rats
Description: In the experiment, male Crl:CD(SD)IGS rats (Charles River Japan, Inc.) supplied at 5 weeks of age were used. The rats were housed in Econ cages (4 or less rats per cage) and were raised by giving free access to solid feed CRF-1 (Oriental Yeast Co., Ltd.) and tap water (in a water bottle) until they were subjected to the experiment. When acclimation after shipping was completed, each of the Crl:CD(SD)IGS rats at 6 weeks of age was anesthetized with pentobarbital sodium (Somnopentyl (registered trademark) injectable solution, 35 mg/kg, intraperitoneal injection). Subsequently, for the purpose of preventing damage to norepinephrine neurons by 6-hydroxydopamine (6-OHDA), desipramine (25 mg/kg) was intraperitoneally injected, and the rat was held and fixed by a brain fixation device. A small bone window was opened with a hand drill at a desired site, and 6-OHDA was injected into the medial forebrain bundle according to the brain atlas of Paxinos and Watson using a 30 G cannula (Brain Science Idea. Co. Ltd.) with a needle tip cut at an angle of 45° (site of injection: A=−4.5 mm, L=+1.2 mm, and V=−7.8 mm with respect to the bregma, injection amount: 8 μg/4 μL/8 min/site in each case). […] Thereafter, the burr hole was closed with an instant glue, and then sutured and disinfected with iodine tincture. […] In a rotation test, a device configured such that a black plastic circular cylinder having a diameter of 30 cm and a height of 35 cm was placed upright in a black-painted bowl having an opening diameter of 35 cm and a bottom diameter of 17 cm was used (the height of the curve from the bottom of the bowl to the bottom edge of the cylinder was set to 7 cm). The rat was placed in the device (one rat per device) and acclimated to the device for 30 minutes. Thereafter, a test substance was administered to the rat, and the rat was returned to the same device and videotaped. […] As for the number of rotations, a 360° rotation in one direction was determined to be one rotation. In the case where the direction (body's direction of movement or movement direction) was changed during rotation, the rotation was not included in the count. […] Incidentally, in each case, benserazide which is a dopa decarboxylase inhibitor (8 mg/kg) was orally administered concomitantly. […] In addition, the respective values are each a mean of the values obtained using 11 rats in each group and its standard error.

[5] = in vivo; cited from earlier work
[6] = male, beagle, dog, in vivo, po, 3 mg/kg

AUC (area under the blood concentration-time curve of levodopa) ([3]; dog, in vivo, po, 3 mg/kg) [μg^+ hr/mL]	Cmax/C6 hr (ratio of maximum plasma concentration and plasma concentration at 6 hours after oral administration, levodopa) [3, 6]	Structure (SMILES)	Absorption through oral administration [1]	Mutagenicity assay (NESMAGET) Concentration at which mutagenicity was determined to be positive [2] [µg/mL]	determination of mutagenicity [2]	also measured
–	–	CC(C)(OC(=O)c1ccccc1)C(=O)Oc1ccc(C[C@H](N)C(=O)O)cc1OC(=O)C(C)(C)OC(=O)c1ccccc1 [Example 10, (2S)-2-amino-3-(3,4-bis((2-(benzoyloxy)-2-methylpropanoyl)oxy)phenyl)propanoic acid]	can be absorbed through oral administration	–	–	–
–	–	CC(C)(OC(=O)c1ccccc1)C(=O)Oc1ccc(C[C@H](N)C(=O)O)cc1OC(=O)C(C)(C)OC(=O)c1ccccc1.Cc1ccc(S(=O)(=O)O)cc1 [Example 6, (2S)-2-amino-3-(3,4-bis((2-(benzoyloxy)-2-methylpropanoyl)oxy)phenyl)propanoic acid tosylate]	can be absorbed through oral administration	–	–	–
0.22	7.4	COc1ccccc1C(=O)OCC(C)(C)C(=O)Oc1ccc(C[C@H](N)C(=O)O)cc1OC(=O)C(C)(C)COC(=O)c1ccccc1OC.Cl [Reference Example 16]	–	84	positive for mutagenicity	–
–	–	CC(C)(OC(=O)c1ccccc1)C(=O)Oc1ccc(C[C@H](N)C(=O)O)cc1OC(=O)C(C)(C)OC(=O)c1ccccc1 [Example 9, (2S)-2-amino-3-(3,4-bis((2-(benzoyloxy)-2-methylpropanoyl)oxy)phenyl)propanoic acid]	can be absorbed through oral administration	–	–	rotational behavior compared with the compound produced in Example 5 ([4]; used in place of Example 5): the same results were obtained
0.52	23.9	CC(C)(COC(=O)c1ccsc1)C(=O)Oc1ccc(C[C@H](N)C(=O)O)cc1OC(=O)C(C)(C)COC(=O)c1ccsc1.Cl [Reference Example 11, (2S)-2-Amino-3-(3,4-bis((2,2-dimethyl-3-((thiophene-3-carbonyl)oxy)propanoyl)oxy)phenyl)propanoic acid hydrochloride]	–	1.4	positive for mutagenicity	–
0.81	4.3	CC(C)(COC(=O)c1ccccc1)C(=O)Oc1ccc(C[C@H](N)C(=O)O)cc1OC(=O)C(C)(C)COC(=O)c1ccccc1.Cl [Reference Example 40, (S)-2-Amino-3-(3,4-bis((3-(benzoyloxy)-2,2-dimethylpropanoyl)oxy)phenyl)propanoic acid hydrochloride]	–	16	positive for mutagenicity	–
–	913.8	N[C@@H](Cc1ccc(O)c(O)c1)C(=O)O [Levodopa, L-3,4-dihydroxyphenylalanine]	–	–	–	time after administration at which the number of rotations reached a maximum value ([4]; oral, levodopa 30 mg/kg or Example 5 100 mg/kg expressed in terms of levodopa, benserazide 8 mg/kg): 20 min; maximum value of the number of rotations per 10 minutes ([4]; oral, levodopa 30 mg/kg or Example 5 100 mg/kg expressed in terms of levodopa, benserazide 8 mg/kg concomitantly, N=11): about 100 times; percentage of the absorbed levodopa distributed in the central nervous system [5]: less than 1%; share of the absorbed levodopa metabolized by aromatic L-amino acid decarboxylase (AADC) in organs other than the central nervous system [5]: ≥ 95%; AUC (area under the blood concentration-time curve of levodopa) ([3]; levodopa in plasma, fasted male beagle dogs, oral gavage, dose 3 mg/kg expressed in terms of levodopa): 0.96 μg^+ hr/mL; AUC ([3]; male, beagle, dog, plasma, po, 3 mg/kg): 0.96 µg·h/mL

Source: US8748485B2, “Compound and medical use thereof” (Ono Pharmaceuticals Co., Ltd., priority 2010, dated 2014)
